Data set [1] deals with T1, GABAB receptor (Rattus norvegicus, UniProt Q9Z0U4).
T1 construct: from tissue; host or cells: rat cerebral cortex membranes
The data set is described as follows: [3H]CGP54626 rat brain GABAB receptor binding assay. Conditions: [3H]CGP54626 rat brain binding assay.

Data set [2] in a line: Bioavailability following oral administration to rats. Conditions: rat, in vivo. On the procedure: Rats were obtained commercially and were pre-cannulated in the jugular vein. Animals were conscious at the time of the experiment. All animals were fasted overnight and until 4 hours post-dosing of a compound.
Rat blood samples (0.3 mL/sample) were collected from all animals prior to dosing and at different time-points up to 24 h post-dose into tubes containing EDTA. Two aliquots (100 μL each) were quenched with 300 μL methanol and stored at −20° C. prior to analysis.
To prepare analysis standards, 90 μL of rat blood was quenched with 300 μL methanol followed by 10 μL of spiking standard and/or 20 μL of internal standard. The sample tubes were vortexed for at least 2 min and then centrifuged at 3400 rpm for 20 min. The supernatant was then transferred to an injection vial or plate for analysis by LC-MS-MS.
To prepare samples for analysis, 20 μL of internal standard was added to each quenched sample tube. The sample tubes were vortexed for at least 2 min and then centrifuged at 3400 rpm for 20 min. The supernatant was then transferred to an injection vial or plate for analysis by LC-MS-MS.
LC/MS/MS analysis was performed using an API 2000 or API 4000 mass spectrometer equipped with a Shimadzu and or Agilent HPLC system are used for determination concentration of compounds in rat blood. A Varian Polaris C18, 3μ 50×4.6 mm column was used. 0.1% Formic acid in water and acetonitrile were applied as the mobile phase. Runs were 4.0 min. […] L-4-Chlorophenylalanine was used as an internal standard at m/z 200.00/154.00.
Non-compartmental analysis was performed using WinNonlin software (v.3.1 Professional Version, Pharsight Corporation, Mountain View, Calif.) on individual animal profiles. […]
The oral bioavailability (F %) of a compound was determined by comparing the area under the compound concentration vs time curve (AUC) following oral administration of a prodrug of a GABAB ligand with the AUC of the compound concentration vs time curve following intravenous administration of the GABAB ligand on a dose normalized basis.

T1 sequence (Q9Z0U4 20-960): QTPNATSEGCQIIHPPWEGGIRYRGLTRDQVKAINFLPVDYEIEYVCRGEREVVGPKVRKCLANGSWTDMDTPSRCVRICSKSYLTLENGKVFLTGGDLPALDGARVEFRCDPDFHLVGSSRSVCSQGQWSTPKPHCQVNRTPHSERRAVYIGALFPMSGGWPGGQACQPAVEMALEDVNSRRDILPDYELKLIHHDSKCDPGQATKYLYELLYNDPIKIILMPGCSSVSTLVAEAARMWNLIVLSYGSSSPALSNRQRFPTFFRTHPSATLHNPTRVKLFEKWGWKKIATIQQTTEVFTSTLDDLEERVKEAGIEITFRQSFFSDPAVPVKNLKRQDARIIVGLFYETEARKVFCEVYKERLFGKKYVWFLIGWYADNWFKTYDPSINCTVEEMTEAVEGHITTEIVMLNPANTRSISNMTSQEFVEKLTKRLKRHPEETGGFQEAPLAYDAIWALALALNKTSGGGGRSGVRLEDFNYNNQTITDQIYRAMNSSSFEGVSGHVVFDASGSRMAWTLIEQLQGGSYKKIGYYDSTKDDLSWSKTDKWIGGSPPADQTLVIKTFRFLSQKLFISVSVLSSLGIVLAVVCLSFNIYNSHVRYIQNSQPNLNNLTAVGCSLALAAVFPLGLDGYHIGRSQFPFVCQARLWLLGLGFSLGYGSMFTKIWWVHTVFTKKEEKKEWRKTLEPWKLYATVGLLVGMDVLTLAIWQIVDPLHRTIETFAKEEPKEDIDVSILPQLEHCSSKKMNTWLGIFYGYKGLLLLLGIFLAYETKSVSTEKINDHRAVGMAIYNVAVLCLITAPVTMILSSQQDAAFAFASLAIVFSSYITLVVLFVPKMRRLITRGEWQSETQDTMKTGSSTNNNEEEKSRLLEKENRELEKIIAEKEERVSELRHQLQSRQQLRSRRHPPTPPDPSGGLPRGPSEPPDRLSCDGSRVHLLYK
T1 sequence (O88871 41-940 partner): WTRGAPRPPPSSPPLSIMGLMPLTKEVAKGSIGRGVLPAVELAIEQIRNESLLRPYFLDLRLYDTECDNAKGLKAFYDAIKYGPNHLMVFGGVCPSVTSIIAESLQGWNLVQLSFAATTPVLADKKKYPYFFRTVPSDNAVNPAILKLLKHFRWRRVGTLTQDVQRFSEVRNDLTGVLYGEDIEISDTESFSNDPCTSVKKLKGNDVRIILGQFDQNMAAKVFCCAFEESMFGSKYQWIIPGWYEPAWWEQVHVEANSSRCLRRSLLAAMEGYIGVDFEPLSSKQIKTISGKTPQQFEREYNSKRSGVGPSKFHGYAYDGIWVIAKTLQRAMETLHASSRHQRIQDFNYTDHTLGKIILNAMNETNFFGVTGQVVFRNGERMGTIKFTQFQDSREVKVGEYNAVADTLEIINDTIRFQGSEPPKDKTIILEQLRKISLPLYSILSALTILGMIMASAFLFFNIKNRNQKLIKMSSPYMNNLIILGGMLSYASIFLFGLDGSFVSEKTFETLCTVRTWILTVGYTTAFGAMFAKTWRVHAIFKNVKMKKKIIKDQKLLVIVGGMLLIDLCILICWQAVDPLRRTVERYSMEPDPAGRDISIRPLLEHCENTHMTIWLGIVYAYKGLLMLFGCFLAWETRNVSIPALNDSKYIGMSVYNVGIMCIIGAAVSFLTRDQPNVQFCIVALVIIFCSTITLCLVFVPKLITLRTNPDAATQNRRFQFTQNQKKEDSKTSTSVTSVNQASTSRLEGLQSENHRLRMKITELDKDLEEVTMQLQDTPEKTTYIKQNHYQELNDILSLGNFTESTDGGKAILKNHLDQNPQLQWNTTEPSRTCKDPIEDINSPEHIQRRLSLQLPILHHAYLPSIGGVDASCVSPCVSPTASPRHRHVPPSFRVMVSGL

As a reminder, the IC50 is the concentration at which inhibition is half-maximal. Higher therefore signals weaker potency in that assay. On to `Cl.NC[C@H](CC(=O)O)c1ccc(Cl)c(OCc2ccncc2)c1` [Example 68, (3R)-4-Amino-3-[4-chloro-3-(4-pyridylmethoxy)phenyl]butanoic acid hydrochloride], for which the IC50 in data set [1] is below 25 µM. Besides, the “oral bioavailability (F %)” value in data set [2] was “greater than 10%”.

(Values after patent US8344028B2, “Gamma-amino-butyric acid derivatives as GABAB receptor ligands” (XenoPort, Inc., priority 2009, dated 2013).)
